Measured values published in paper PMC4391943, “Novel Epigallocatechin-3-Gallate (EGCG) Derivative as a New Therapeutic Strategy for Reducing Neuropathic Pain after Chronic Constriction Nerve Injury in Mice” (PLoS ONE, 2015).

Legend:
CCI-mice = assay: Thermal hyperalgesia (plantar heat / Hargreaves test), paw withdrawal latency after chronic constriction injury; type: in vivo; conditions: for latency to paw withdrawal to a thermal stimulus: mean ± SEM, n = 5; for time-dependent effect on thermal paw withdrawal latency vs vehicle: 50 mg/Kg i.p., assessed weekly from 7 to 56 dpi, n = 15 (Fig 1)
Protocol: The chronic constriction injury (CCI) followed the procedure described elsewhere. Animals were anesthetized with sodium pentobarbital (50 mg/kg; i.p.), an incision was made in the right thigh, and the sciatic nerve was exposed. Two loose ligatures with 1 mm apart were then made around the nerve using the 6–0 poly-glycolic acid synthetic absorbable sutures. The incision was closed using 5–0 interrupted nylon sutures. A control group was included with sham surgery where the right sciatic nerve was exposed but not further manipulated.
For dose response studies, EGCG and the two synthetic EGCG derivatives compound 23 and compound 30 were administered by intra-peritoneal injection at 10, 30, 50 and 100 mg/Kg (n = 5 mice/compound/dose), 30 minutes after the CCI. To analyze the time-dependent effect EGCG and the two synthetic EGCG derivatives compound 23 and compound 30 were administered by intra-peritoneal injection at 50 mg/Kg (n = 15 mice/compound), 30 minutes after the CCI. Another set of animals were used to study the effect of 50 mg/kg of EGCG and the two synthetic EGCG derivatives compound 23 and compound 30 at 14 dpi (n = 15 mice/compound). In all cases, the administration was daily repeated during the first week. All compounds were dissolved in DMSO/saline solution (1:9; v/v), used as vehicle group.
To measure changes in thermal sensation we used the plantar heat test (Ugo Basile, Italy) as previously described. Briefly, mice were acclimated 5 days (15 min/day) prior to CCI. At 7, 14, 21, 28, 35, 42, 49 and 56 dpi, mice were enclosed in a clear Plexiglas box. After 15 min, during which the animals were provided with free exploration to habituate to the apparatus, infrared light beam was applied to the plantar surface of the […], and paw withdrawal latency was recorded in seconds. The infrared stimulus application automatically shut off at 30 seconds to avoid tissue damage. Four trials were measured randomly for right […] with at least 2 minutes between each trial.

TNF-α, IL-1β and IL-6 = assay: Quantitative RT-PCR of cytokine mRNA in the dorsal horn of the spinal cord; type: in vivo, mice; conditions: 50 mg/Kg
Protocol: Total RNA was isolated from dorsal horn of spinal cord segments distal to T12 vertebra of all groups (n = 5 mice per group) using the Total RNA isolation nucleospin RNA II Kit. Purified RNA (600 ng) was reverse transcribed using the StrataScript First Strand cDNA Synthesis System. The cDNA synthesis was performed at 42°C for 60 minutes according to the manufacturer’s instructions. The cDNA was then analyzed by quantitative RT-PCR using the following TaqMan Gene Expression Assays (Applied Biosystems, Foster City, CA): 18S, HS99999901_s1; TNF-α, Mm00443258_m1; IL-1β, Mm00434228_m1; IL-6, Mm00446190_m1. The RT-PCR was performed as previously described. Analysis and quantification was obtained with the comparative quantification analysis program of the Mx-Pro Q-PCR Analysis software version 3.0 (Strategene).

NF-κB = assay: Western blot of nuclear NF-κB levels in the dorsal horn of the spinal cord; type: in vivo, mice; conditions: 50 mg/Kg, 14 dpi
Protocol: (§1) Subcellular fractionation was obtained by differential centrifugation as described elsewhere. Briefly, tissue was homogenized in lysis buffer (10 mM Tris-HCl pH 7.5, 1 mM EDTA, 1 mM Na3VO4, 0.25 M sucrose, 2 mM PMSF, 1 μg/μL aprotinin, 1 μg/μL leupeptin, 2 mM sodium orthovanadate). The homogenate was centrifuged at 2,000 × g for 10 min at 4°C to separate the nuclei fraction (P1). The P1 was resuspended in lysis buffer. The resulting supernatant was centrifuged at 10,000×g for 15 min at 4°C to obtain a crude membrane fraction (P2). The P2 was resuspended and incubated in the lysis buffer containing 0.5% Triton X-100 for 15 min, and then centrifuged at 25,000 × g for 20 min to obtain the synaptosomal membrane fraction (P3). Finally, the P3 was resuspended in lysis buffer and centrifuged on a discontinuous sucrose gradient (0.8 M, 1 M and 1.2 M) at 150,000×g for 2 h. Synaptic plasma membrane (SPM) was collected from the 1:1.2 M interface and resuspended in 50 mM HEPES, 2 mM EDTA, 1 mM PMSF, 10 μg/ml aprotinin, 1 μg/ml leupeptin and 2 mM sodium orthovanadate.
(§2) Western blotting was performed as previously described. The following primary antibodies were used: anti-FASN (1:1000, BD Bioscience, San Jose, CA); anti-TNF-α, anti-IL-1β, anti-IL-6 and anti-NFκB (all 1:500, Santa Cruz Biotechnology, Santa Cruz, CA); anti-phosphoNMDAR2B (Tyr1472) (1:2000, Affinity Bioreagents, Golden, CO) and anti-NMDAR2B (1:1000, Chemicon, Temecula, CA). Loading control was performed by reprobing the membranes with anti-actin (1:10,000; MP Biochemicals, Aurora, OH), anti-NeuN (1:1,000; Chemicon) or anti-N-cadherin (1:1000, BD Bioscience). Membranes were incubated with the corresponding horseradish peroxidase-conjugated antibody (1:2,000; Promega, Madison, WI). Immunoreactive bands were visualized using the Western Blotting Luminol Reagent and quantified by a computer-assisted densitometer (Gel-Pro Analyzer, version 4, Media Cybernetics).

NMDAR2B = assay: Western blot of NMDAR2B in the synaptic plasma membrane fraction of the dorsal horn; type: in vivo, mice; conditions: 50 mg/Kg, 56 dpi
Protocol: as §1, §2

[1] = Serum stability study, human serum; type: in vitro ADME; conditions: 37°C, 75% serum, 0.5 mM compound; for half-life at 0.5 mM: human serum (75% final serum content), read-out: half-life (t1/2) (converted)
Protocol: (§3) Peptide stabilities were assayed in diluted serum as previously described. Human serum (Sigma, S7023) or mouse serum (Europa Bioproducts, EQSM-0100) were incubated at 37°C for 10 min. The assay was initiated upon the addition of the test compound solved in PBS to the serum (75% final serum content) for a final compound concentration of 0.5 mM. Then, 500 µL aliquots of the incubations were taken for the following time points: 0, 15, 30, 60, 120 and 240 min. The aliquots were mixed with 750 µL of cold acetonitrile (ACN) and incubated at 4°C for 10 min to precipitate serum proteins. The supernatant was collected for each sample after centrifugation at 39,000 g for 10 min and were immediately analyzed by high performance liquid chromatography-mass spectrometry (HPLC-MS).

[2] = Serum stability study, mouse serum; type: in vitro ADME; conditions: mouse (Balb/c) serum, 37°C, 75% serum, 0.5 mM compound; for half-life at 0.5 mM: mouse serum (75% final serum content), read-out: half-life (t1/2) (converted)
Protocol: as §3

[3] = 10 mg/Kg i.p. daily first week post-CCI, 7 dpi
[4] = 10 mg/Kg i.p. daily first week post-CCI, 21 dpi
[5] = 30 mg/Kg i.p. daily first week post-CCI, 7 dpi
[6] = 30 mg/Kg i.p. daily first week post-CCI, 21 dpi
[7] = 50 mg/Kg i.p. daily first week post-CCI, 7 dpi
[8] = 50 mg/Kg i.p. daily first week post-CCI, 21 dpi
[9] = 100 mg/Kg i.p. daily first week post-CCI, 7 dpi
[10] = 100 mg/Kg i.p. daily first week post-CCI, 21 dpi

| Molecule | latency to paw withdrawal to a thermal stimulus (CCI-mice; [3]) [s] | latency to paw withdrawal to a thermal stimulus (CCI-mice; [4]) [s] | latency to paw withdrawal to a thermal stimulus (CCI-mice; [5]) [s] | latency to paw withdrawal to a thermal stimulus (CCI-mice; [6]) [s] | latency to paw withdrawal to a thermal stimulus (CCI-mice; [7]) [s] | latency to paw withdrawal to a thermal stimulus (CCI-mice; [8]) [s] | time-dependent effect on thermal paw withdrawal latency vs vehicle (CCI-mice) | latency to paw withdrawal to a thermal stimulus (CCI-mice; [9]) [s] | latency to paw withdrawal to a thermal stimulus (CCI-mice; [10]) [s] | decrease in mRNA levels of TNF-α, IL-1β and IL-6 compared to vehicle (TNF-α, IL-1β and IL-6; 14 dpi) | nuclear NF-κB levels (NF-κB) | protein levels of NMDAR2B in the synaptic plasma membrane (SPM) (NMDAR2B) | half-life at 0.5 mM [1] [min] | half-life at 0.5 mM [2] [min] | decrease in mRNA levels of TNF-α, IL-1β and IL-6 compared to vehicle (TNF-α, IL-1β and IL-6; 56 dpi) | mRNA levels of IL-6 compared to vehicle (TNF-α, IL-1β and IL-6; 56 dpi) | half-life (t1/2) [1] | half-life (t1/2) [2] |
| --- | --- | --- | --- | --- | --- | --- | --- | --- | --- | --- | --- | --- | --- | --- | --- | --- | --- | --- |
| O=C(Oc1cccc2c(OC(=O)c3cc(O)c(O)c(O)c3)cccc12)c1cc(O)c(O)c(O)c1 [Compound 23, 1,5-Bis [(3,4,5-trihydroxybenzoyl)oxy] naphthalene] | 4.07 ± 0.31 | 3.89 ± 0.43 | 4.57 ± 0.29 | 3.77 ± 0.59 | 4.38 ± 0.3 | 3.93 ± 0.24 | did not detect differences at any time point analyzed | 4.41 ± 0.27 | 3.71 ± 0.29 | no differences | no changes | did not result in changes | 84 | 18 |  |  |  |  |
| O=C(Oc1ccc(-c2ccc(OC(=O)c3cc(O)c(O)c(O)c3)cc2)cc1)c1cc(O)c(O)c(O)c1 [Compound 30, 4,4′-Bis [(3,4,5-trihydroxybenzoyl)oxy]-1,1′-biphenyl] | 3.71 ± 0.39 | 4.11 ± 0.51 | 3.93 ± 0.37 | 4.33 ± 0.57 | 4.31 ± 0.3 | 7.61 ± 0.67 | augmentation in the paw withdrawal latency from 14 to 56 dpi | 4.79 ± 0.44 | 6.49 ± 0.53 | ~3 fold | reduced | specific decrease | 114 | 24 | not observed | slight decrease |  |  |
| epigallocatechin-3-gallate [EGCG] | 3.93 ± 0.33 | 3.83 ± 0.23 | 5.01 ± 0.35 | 4.28 ± 0.45 | 13.01 ± 1.02 | 8.58 ± 0.9 | increase in paw withdrawal latency in CCI-mice treated with EGCG from 7 to 21 dpi | 9.38 ± 0.66 | 6.15 ± 0.42 | ~3 fold | reduced | did not result in changes |  |  | not observed |  | < 0,1 h | < 0,1 h |
